In patent publication US20130345306A1, “IDENTIFICATION OF C3 COMPLEMENT MOLECULE AT THE SITE OF INJURY TO BLOOD VESSELS IN THE RETINA OF OXYGEN EXPOSED ANIMALS” (priority 2011, published 2013):
“Also recorded” adds a separate entry of the source.

Experiments:
new born mice = assay: Murine OIR trial with progressively increased SB290157 dosage, observation for untoward reactions or side effects; format: in vivo, mouse; conditions: i.p. DOL 5; dosage increased from 2.5 to 5, 7.5, 10, 15, 25, 50 mgm/kg; 75% O2 DOL 7-12
Procedure: Standard O2 exposure 75% DOL 7-12; 3) Euthanasia at DOL17, followed by enucleation, removal of the retina and separation from the retina from underlying Pigment Epithelial layer. Flatmount and stain for vessels with IsoLectin was performed by incubating the preparation with goat AB followed by counter-staining with Rhodamine to bring out the presence of active C3a; 4)Microscopy at 2.5× and 40× for: capillary bed anatomy; presence of “ghost vessels” previously described; presence of cellular debris noted previously thought to be pieces of partially destroyed but not digested cell wall; destruction or absence of neurons and glial in the retina surrounding the Optic Nerve Head(from which major blood vessels exit undamaged at least as can be detected by the oxygen exposure); presence or absence of neovascular tufts (a late complication of oxygen damage). An additional trial with Intravitreal Injection will be performed as this paper is prepared.
MATERIALS & METHOD: Litters of black 6 new born mice were divided in half at birth. At DOL seven, one half of the litter were placed in an oxygen chamber maintained at 75%+/−2% oxygen till DOL 12. The oxygen exposed mice were maintained in room air until DOL 17. The control mice were raised in room air until DOL 17 when both halves were euthanized at DOL17. Eyes were enucleated and fixed in 4% paraformaldehyde at 4° C. overnight. […]

human C3aR = human C3aR (Homo sapiens, UniProt Q16581); conditions: cited from earlier work
airway neutrophilia = conditions: in vivo; cited from earlier work
[1] = test system: murine oxygen-induced retinopathy (OIR); assay: Murine oxygen-induced retinopathy (OIR), SB290157 injected intraperitoneally on DOL 5, retinal vasculature pattern on DOL 17; format: in vivo; conditions: 1 mg/kg i.p. DOL 5
Procedure: litters of new born mice were divided into 4 groups. On Day of Life (DOL) 5, SB290157 1 mg per kilogram body weight is injected intraperitoneally into mice in Group 1 and Group 3; same volume solvent without SB290157 is injected intraperitoneally into mice in Group 2 and Group 4. Mice from group 1 and 2 are raised in room air all the time, but mice from group 3 and 4 are raised in room air till DOL 7 when they are transfer into 75% oxygen chamber and on DOL 12 they are returned into room air. On DOL 17, eyes are enucleated and retinas dissected after euthanasia. Retinas are then stained with Alexa Fluor 488 conjugated isolectin GS-IB4 and mounted on slide for vasculature pattern study.

[2] = test system: murine oxygen-induced retinopathy (OIR); assay: Murine OIR, SB290157 intraperitoneal just prior to 75% oxygen, preservation of capillary bed; format: in vivo, mouse; conditions: 2-5 mg/kg i.p. just prior to 75% oxygen DOL 7-12; vs sham saline injected oxygen-exposed litter mates
Procedure: Murine Model of Oxygen-Induced Retinopathy (OIR): In this regard we reported the role of active C3a in the OIR (15). C57BL/6J mice were obtained from Jackson Laboratories. After birth the litter of mice were nursed by their dam in a room air environment from day of life (DOL) 0 to DOL 6. On DOL 7 the litter were separated in half. One half were placed with their nursing dam in a custom made incubator from DOL 7 through DOL 12 ([…]) with the oxygen concentration maintained at 75% measured twice daily. The other half of the litter were raised in room air as controls. Dams were replaced every 24 hours in the incubator. […]
After a rinse, the retinas were permeabilized with 0.1% Triton X100 and stained with Alexa Fluor 488-conjugated isolectin GS-IB4, followed by blocking with 5% donkey serum. […] Images were obtained digitally with a fluorescence microscope and a digital camera. […]
For a given control half litter the areal extent of total destruction can be estimated, in a non-limiting example from the area extending from optic nerve to mid periphery of the retina. For the SB290157 treated animals the measured area of destruction can be estimated, in a non-limiting example from the area extending from optic nerve to mid periphery of the retina. […] The results of this experiment are measured in prevention of capillary loss. […]

rodent C3aR = conditions: cited from earlier work
[3] = 75% oxygen DOL 7-12, DOL 17, vs solvent-injected oxygen-exposed group 4

Chain of human C3aR (Q16581 whole entry): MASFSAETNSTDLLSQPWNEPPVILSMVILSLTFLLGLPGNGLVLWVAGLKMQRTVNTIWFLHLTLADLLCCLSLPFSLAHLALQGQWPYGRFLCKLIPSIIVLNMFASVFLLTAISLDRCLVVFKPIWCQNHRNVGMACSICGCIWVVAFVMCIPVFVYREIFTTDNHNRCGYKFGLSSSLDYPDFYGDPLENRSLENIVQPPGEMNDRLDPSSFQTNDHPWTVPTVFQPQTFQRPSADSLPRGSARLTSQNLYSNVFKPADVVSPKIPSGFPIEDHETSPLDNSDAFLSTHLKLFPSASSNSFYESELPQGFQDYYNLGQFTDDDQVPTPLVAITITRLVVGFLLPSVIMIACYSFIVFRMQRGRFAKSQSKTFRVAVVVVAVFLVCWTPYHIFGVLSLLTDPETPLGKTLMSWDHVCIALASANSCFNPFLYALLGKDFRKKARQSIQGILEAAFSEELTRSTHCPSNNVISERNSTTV

NC(N)=NCCC[C@H](NC(=O)COCC(c1ccccc1)c1ccccc1)C(=O)O [SB290157]
untoward reactions or side effects (new born mice): None were observed
C3a receptor blockade (human C3aR): blocking
effect in airway neutrophilia (airway neutrophilia): beneficial effects
effect on murine OIR (conclusion) ([1]; 75% oxygen DOL 7-12): can attenuate murine OIR
capillary damage in retinal whole mounts [1, 3]: attenuated the damage to the capillary bed; also recorded: significantly less capillary damage
neovascularization tufts [1, 3]: few to no vascular tufts; also recorded: less neovascularization tufts
retinal vasculature / toxicity to forming vascular tissue in room air raised mice ([1]; room air, DOL 17, vs solvent group 2): No evidence of toxicity to forming vascular tissue; also recorded: normal developing vasculature patterns without significant difference
preservation of capillary bed [2]: prevents the destruction of capillary bed; also recorded: preservation of capillary bed
C3a receptor blockade (rodent C3aR): blocking
